Experimental data reported in patent US20060030569A1, “Diarylmethyl piperazine derivatives, preparations thereof and uses thereof” (AstraZeneca AB, priority 2004, published 2006).
Like-named read-outs stand apart in the source and are kept apart here.

What was measured:
cloned human μ receptors = molecular target: T1, cloned human μ receptors (Homo sapiens, UniProt P35372); experiment: Binding assay, displacement of 125I-FK33824 (IC50hm)
T1 construct: expressed in transfected cells; host or cells: human 293S (HEK 293S) cells

human δ receptors = molecular target: T2, human δ receptors (Homo sapiens, UniProt P41143); experiment: Human δ receptor functional assay, GTP[γ]35S binding; format: biochemical; details: for Emax: in relation to SNC80
T2 construct: expressed in transfected cells
Method: (§1) The agonist activity of the compounds is measured by determining the degree to which the compounds receptor complex activates the binding of GTP to G-proteins to which the receptors are coupled. In the GTP binding assay, GTP[γ]^35S is combined with test compounds and membranes from BEK-293S cells expressing the cloned human opioid receptors or from homogenised rat or mouse brain. Agonists stimulate GTP[γ]^35S binding in these membranes. The EC50 and Emax values of compounds are determined from dose-response curves. Right shifts of the dose response curve by the delta antagonist naltrindole are performed to verify that agonist activity is mediated through delta receptors. For human δ receptor functional assays, EC50 (low) is measured when the human δ receptors used in the assay were expressed at lower levels in comparison with those used in determining EC50 (high). The Emax values were determined in relation to the standard δ agonist SNC80, i.e., higher than 100% is a compound that has better efficacy than SNC80.
(§2) Rat brain membranes are thawed at 37° C., passed 3 times through a 25-gauge blunt-end needle and diluted in the GTPγS binding (50 mM Hepes, 20 mM NaOH, 100 mM NaCl, 1 mM EDTA, 5 mM MgCl2, pH 7.4, Add fresh: 1 mM DTT, 0.1% BSA). 120 μM GDP final is added membranes dilutions. […] The basal and maximal stimulated binding are determined in absence and presence of 3 μM SNC80. The assay performed on HEK 293S cells stably expressing cloned Delta receptors is done in a slightly different buffer (50 mM Hepes, 20 mM NaOH, 200 mM NaCl, 1 mM EDTA, 5 mM MgCl2, pH 7.4, Add fresh: 0.5% BSA, no DTT) and with a 3 μM final conc. of GDP.

[1] = molecular target: T3, δ receptors in rat brain membranes (Rattus norvegicus, UniProt P33533); experiment: Rat brain functional assay, GTPγ35S binding; format: biochemical; details: for Emax: in relation to SNC80, read-out: EC50rb Emax
T3 construct: membranes from BEK-293S cells expressing the cloned human opioid receptors or from homogenised rat or mouse brain; from tissue; host or cells: rat brain
Method: Rat brains are weighed and rinsed in ice-cold PBS (containing 2.5 mM EDTA, pH 7.4). The brains are homogenized with a polytron for 30 sec (rat) in ice-cold lysis buffer (50 mM Tris, pH 7.0, 2.5 mM EDTA, with phenylmethylsulfonyl fluoride added just prior use to […] from a 0.5 M stock in DMSO:ethanol).
as §1, with “(high).” for “(high). The Emax values were determined in relation to the standard δ agonist SNC80, i.e., higher than 100% is a compound that has better efficacy than SNC80.”
as §2

cloned human κ receptors = molecular target: T4, cloned human κ receptors (Homo sapiens, UniProt P41145); experiment: Binding assay, displacement of 125I-DPDYN (IC50hk)
T4 construct: expressed in transfected cells; host or cells: human 293S (HEK 293S) cells

cloned human δ receptors = molecular target: T5, cloned human δ receptors (Homo sapiens, UniProt P41143); experiment: Binding assay, displacement of 125I-Deltorphin II (IC50hd)
T5 construct: expressed in transfected cells

[2] = human δ receptors expressed at higher levels, read-out: EC50h (high) Emax
[3] = human δ receptors expressed at higher levels, read-out: EC50h (high)
[4] = human δ receptor, 293S cell membranes, read-out: IC50hd
[5] = EC50h (low), human δ receptors expressed at lower levels
[6] = human δ receptors expressed at lower levels, read-out: EC50h (low) Emax

T4 sequence (P41145 whole entry): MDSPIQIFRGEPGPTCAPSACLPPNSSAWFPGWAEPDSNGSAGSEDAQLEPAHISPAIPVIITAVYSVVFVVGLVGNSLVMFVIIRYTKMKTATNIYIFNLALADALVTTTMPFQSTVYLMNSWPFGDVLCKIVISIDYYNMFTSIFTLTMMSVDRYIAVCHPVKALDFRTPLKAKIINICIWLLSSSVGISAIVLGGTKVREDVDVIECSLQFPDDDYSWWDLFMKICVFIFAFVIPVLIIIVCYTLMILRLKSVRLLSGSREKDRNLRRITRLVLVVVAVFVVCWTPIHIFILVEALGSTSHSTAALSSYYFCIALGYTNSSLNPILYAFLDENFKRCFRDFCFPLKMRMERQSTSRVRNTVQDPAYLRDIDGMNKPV
T2 sequence (P41143 whole entry): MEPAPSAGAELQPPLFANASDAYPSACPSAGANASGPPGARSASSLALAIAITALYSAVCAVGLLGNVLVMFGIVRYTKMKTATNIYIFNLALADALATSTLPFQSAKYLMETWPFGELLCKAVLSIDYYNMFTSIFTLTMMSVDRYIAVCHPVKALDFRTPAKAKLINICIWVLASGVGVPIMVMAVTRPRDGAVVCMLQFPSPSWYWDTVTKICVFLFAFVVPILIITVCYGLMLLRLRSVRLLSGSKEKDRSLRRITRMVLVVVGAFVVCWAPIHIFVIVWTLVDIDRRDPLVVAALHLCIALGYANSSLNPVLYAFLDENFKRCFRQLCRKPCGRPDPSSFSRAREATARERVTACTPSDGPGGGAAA
T5 sequence (P41143 whole entry): as above
T3 sequence (P33533 whole entry): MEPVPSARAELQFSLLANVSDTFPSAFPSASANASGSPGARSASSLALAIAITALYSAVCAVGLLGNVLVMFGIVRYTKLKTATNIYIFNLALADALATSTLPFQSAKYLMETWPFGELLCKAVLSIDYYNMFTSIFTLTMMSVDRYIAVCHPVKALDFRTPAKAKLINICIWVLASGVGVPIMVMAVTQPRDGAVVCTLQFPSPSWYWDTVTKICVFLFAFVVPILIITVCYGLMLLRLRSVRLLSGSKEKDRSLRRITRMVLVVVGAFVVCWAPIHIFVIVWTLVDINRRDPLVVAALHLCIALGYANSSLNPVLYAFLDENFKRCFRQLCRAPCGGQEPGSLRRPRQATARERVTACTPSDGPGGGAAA
T1 sequence (P35372 whole entry): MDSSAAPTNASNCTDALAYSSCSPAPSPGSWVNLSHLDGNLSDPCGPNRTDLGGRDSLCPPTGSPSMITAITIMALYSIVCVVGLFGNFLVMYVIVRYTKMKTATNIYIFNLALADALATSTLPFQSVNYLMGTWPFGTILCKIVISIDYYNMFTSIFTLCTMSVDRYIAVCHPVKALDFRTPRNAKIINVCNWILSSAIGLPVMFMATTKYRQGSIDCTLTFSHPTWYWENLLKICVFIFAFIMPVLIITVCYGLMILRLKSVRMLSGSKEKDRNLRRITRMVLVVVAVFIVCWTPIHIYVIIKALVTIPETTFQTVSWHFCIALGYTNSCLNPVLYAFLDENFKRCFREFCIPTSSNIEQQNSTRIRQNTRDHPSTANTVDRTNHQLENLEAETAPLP

CCN(CC)C(=O)c1ccc([C@@H](c2cccc(N)c2)N2CCN(Cc3ccc(F)cc3)CC2)cc1
IC50 (cloned human μ receptors): 3320 nM
Emax (human δ receptors; [2]): 89.1%
EC50 (human δ receptors; [3]): 100 nM
EC50 [1]: 466 nM
Emax [1]: 66.3%
IC50 (cloned human κ receptors): > 10000 nM
IC50 (cloned human δ receptors; [4]): 8.8 nM

CCN(CC)C(=O)c1ccc([C@H](c2cccc(N)c2)N2CCN(Cc3ccccc3F)CC2)cc1
IC50 (cloned human μ receptors): 2260 nM
EC50 (human δ receptors; [5]): 48.1 nM
Emax (human δ receptors; [6]): 90%
IC50 (cloned human κ receptors): 7260 nM
IC50 (cloned human δ receptors): 0.717 nM

CCN(CC)C(=O)c1ccc([C@H](c2cccc(N)c2)N2CCN(Cc3cccc(F)c3)CC2)cc1
IC50 (cloned human μ receptors): 2740 nM
EC50 (human δ receptors; [5]): 77.4 nM
Emax (human δ receptors; [6]): 84.4%
IC50 (cloned human κ receptors): 5770 nM
IC50 (cloned human δ receptors): 1.08 nM

CCN(CC)C(=O)c1ccc([C@H](c2cccc(N)c2)N2CCN(Cc3ccc(F)cc3)CC2)cc1
IC50 (cloned human μ receptors): 715 nM
Emax (human δ receptors; [2]): 104%
EC50 (human δ receptors; [3]): 4.18 nM
Emax (human δ receptors; [6]): 95.3%
EC50 (human δ receptors; human δ receptors expressed at lower levels, read-out: EC50h (low)): 20.6 nM
EC50 [1]: 22.8 nM
Emax [1]: 130%
IC50 (cloned human κ receptors): 5520 nM
IC50 (cloned human δ receptors; [4]): 0.587 nM
